# Measurements from article PMC8085013, “Mixture interactions at mammalian olfactory receptors are dependent on the cellular environment” (Scientific Reports, 2021).
# “Also recorded” adds a separate entry of the source.
# Legend:
# Format in all cases: cell-based
# mouse Olfr73 [1] = target: T1, mouse Olfr73 (Mus musculus, UniProt Q920P2); assay: Calcium imaging of HEK293 cells expressing Olfr73 with Gs/olf, short 5-s odorant pulse; conditions: for Agonism/antagonism, HEK293 short odor Ca2+ Gs/olf: strong agonist 100 µM, putative antagonist 1 mM, single or as pair; for Effect on the response to eugenol or vanillin in a binary mix: agonist 100 µM, test ligand 1 mM
# T1 sequence (Q920P2 1-313): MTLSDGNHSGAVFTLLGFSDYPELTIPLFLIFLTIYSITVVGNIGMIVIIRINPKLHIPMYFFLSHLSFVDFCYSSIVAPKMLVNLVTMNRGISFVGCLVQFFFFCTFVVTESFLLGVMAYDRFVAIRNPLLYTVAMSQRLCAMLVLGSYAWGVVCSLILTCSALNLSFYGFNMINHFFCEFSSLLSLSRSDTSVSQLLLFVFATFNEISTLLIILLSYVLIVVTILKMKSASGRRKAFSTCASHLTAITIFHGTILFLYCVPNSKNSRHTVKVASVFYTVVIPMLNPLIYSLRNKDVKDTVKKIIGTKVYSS
# mouse Olfr73 [2] = target: T1, mouse Olfr73; assay: GCaMP3 calcium imaging of HEK293T cells co-transfected with pTR-Olfr73-furin2A-GCaMP3 (untagged Olfr73) and Gα15, 5-s pulse; conditions: for Response to ligand applied alone: HEK293T, untagged Olfr73, Gα15, 5-s pulse
# mouse Olfr73 [3] = target: T1, mouse Olfr73; assay: cAMP-dependent Ca2+ influx (CNGCmut, GCaMP3) in HEK293 cells with untagged Olfr73 and Gs/olf, 10-min odorant; conditions: for Response to ligand applied alone, prolonged: 10-min application; for Response to ligand applied alone, prolonged / Agonism/antagonism, HEK293 long odor Ca2+ Gs/olf: eugenol 100 µM, MIEG 1 mM; for Agonism/antagonism, HEK293 long odor Ca2+ Gs/olf: prolonged 10-min odorant application
# mouse Olfr73 [4] = target: T1, mouse Olfr73; assay: Calcium imaging of HEK293 cells expressing Olfr73 with Gα15, short 5-s odorant pulse; conditions: for Agonism/antagonism, HEK293 short odor Ca2+ G15: 5-s pulse, strong agonist 100 µM, putative antagonist 1 mM, single or as pair; for Response to ligand applied alone: HEK293, Gα15, 5-s pulse; for Effect on the response to eugenol in a binary mix: HEK293, Gα15, eugenol 100 µM
# mouse Olfr73 [5] = target: T1, mouse Olfr73; assay: GCaMP3 calcium imaging of rat OSNs ectopically expressing Olfr73 (rAAV2/5), 5-s odorant pulse
# mouse Olfr73 [6] = target: T1, mouse Olfr73; assay: GCaMP3 calcium imaging of mouse OSNs ectopically expressing Olfr73 (rAAV2/5), 5-s odorant pulse; conditions: for Effect on the response to eugenol in a binary mix: eugenol 100 µM or 10 µM plus putative antagonist; for Agonism/antagonism, OSN Ca2+ Mouse: strong agonist 100 µM, putative antagonist 1 mM, single or as pair
# mouse Olfr73 [7] = target: T1, mouse Olfr73; assay: Cre-SEAP cAMP reporter assay, HEK293 cells co-expressing untagged Olfr73 and Gs/olf, prolonged odorant
# Method: cAMP production was measured as previously described. HEK293T cells were co-transfected with a guanine nucleotide exchange factor Ric-8b (50 ng; a gift from Dr. Malnic, Universidade de São Paulo, Brazil), Gαolf (50 ng), RTP1s (100 ng) and untagged Olfr73 (1.5 μg). Cells were also transfected with 1.5 μg of a pCRE-SEAP, where the expression of the secreted alkaline phosphatase (SEAP) is under regulation of the cAMP responsive element. A plasmid pTAL-SEAP missing the Cre element was used as a negative control. Cells were also transfected with 50 ng of a pcDNA5/TO/LacZ (Invitrogen) for DNA concentration normalization. At 24 h post-transfection, the cells were re-seeded for SEAP analysis and odorants were added at the indicated dilutions at 48 h post-transfection. […] The supernatants were incubated for 30 min at 65 °C and then frozen until analysis. The cell pellets were washed with PBS and then lysed with reporter lysis buffer for β-galactosidase measurement following the manufacturer’s instructions (Promega). SEAP activity was measured by mixing 100 μl of supernatant with an equal amount of BluePhos substrate (KPL). Samples were monitored for color development at 630 nm in a microwell plate reader. SEAP activity was calculated by subtracting the responses of cells transfected in parallel with pTAL-SEAP and normalizing to β-gal activity. Average SEAP activity was determined after subtracting the response of cells not expressing an OR and is reported in arbitrary units ± standard deviation.
# mouse Olfr73 [8] = target: T1, mouse Olfr73; assay: cell-based; conditions: for Agonism/antagonism, HEK293 short odor Ca2+ Gq11: 5-s pulse, strong agonist 100 µM, putative antagonist 1 mM, single or as pair; for Response to ligand applied alone: HEK293, Gαq11/ß1/γ13, 5-s pulse
# Olfr599 = Olfr599 (Mus musculus, UniProt Q8VG01); assay: GCaMP3 calcium imaging of mouse OSNs ectopically expressing Olfr599 (rAAV2/5); conditions: each at 100 µM, 5-s pulse
# Method: Animals 4–6 weeks of age were used for experiments 7–21 days post-inoculation with rAAV2/5 encoding OR-furin2A-GCaMP3. Calcium imaging was performed as detailed previously. Tissue was prepared and mounted with the apical surface facing up. The chamber was transferred to the stage of an upright microscope (Zeiss Axioskop-2F) equipped with a 40×/0.75NA long distance water-immersion objective lens. Experimental solutions were applied for a duration of 5 s directly to the field of view through a 100 µm diameter needle made of fused silica and connected to a 9-channel Teflon manifold. Solution application was controlled by electronic valves (VC-6, Warner Instruments). The calcium response is presented as an increase of GCaMP3 fluorescence originating from the knob and underlying dendrite. The tissue was illuminated using a standard eGFP filter cube BP490 nm/ 535 nm (Omega Optical, USA) and the emitted light was collected at 530 nm (BP 530/20 nm, Omega Optical, USA) by a 12-bit cooled CCD camera (ORCA R2, Hamamatsu, Japan). […] Before processing, fluorescence intensity was corrected for the background. Each knob was assigned a region of interest (ROI) and changes in fluorescence intensity within each ROI were analyzed and expressed as the peak fractional change in fluorescent light intensity (F-Fo)/Fo where Fo is the baseline fluorescence before application of experimental solutions.
# [9] = HEK293, vanillin 100 µM, MIEG 1 mM
# Olfr599, sequence (Q8VG01 entry or part of it): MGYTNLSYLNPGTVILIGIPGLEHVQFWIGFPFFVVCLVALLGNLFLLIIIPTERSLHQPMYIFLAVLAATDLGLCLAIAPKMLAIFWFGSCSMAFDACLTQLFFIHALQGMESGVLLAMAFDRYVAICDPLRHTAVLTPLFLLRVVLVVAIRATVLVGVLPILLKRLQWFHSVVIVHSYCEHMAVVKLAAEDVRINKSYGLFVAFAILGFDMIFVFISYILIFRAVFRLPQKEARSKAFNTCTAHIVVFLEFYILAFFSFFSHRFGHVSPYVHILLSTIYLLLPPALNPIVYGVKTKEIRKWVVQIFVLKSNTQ
smiles,measurement,setting,value
"C/C=C/c1ccc(OC)c(OC)c1 [Methylisoeugenol, methylisoeugenol]","Agonism/antagonism, HEK293 short odor Ca2+ Gs/olf",mouse Olfr73 [1]; 5-s pulse,Antagonist
same,Effect on the response to eugenol or vanillin in a binary mix,"mouse Olfr73 [1]; HEK293, Gs/olf",antagonized
same,Response to ligand applied alone,mouse Olfr73 [2]; listed as MIEG,did not evoke any response; also recorded: did not elicit any response
same,Effect on the response to eugenol in a binary mix,"mouse Olfr73 [2]; eugenol 100 µM, MIEG 1 mM, 5-s pulse",reduced the response; also recorded: significantly diminished
same,"Response to ligand applied alone, prolonged",mouse Olfr73 [3],more slowly developing cAMP-dependent calcium influx; also recorded: significantly smaller than eugenol
same,"Response to mixture with eugenol versus eugenol alone, prolonged","mouse Olfr73 [3]; 10 min, eugenol 100 µM and MIEG 1 mM",no significant difference
same,"Agonism/antagonism, HEK293 long odor Ca2+ Gs/olf",mouse Olfr73 [3],Agonist
same,"Agonism/antagonism, HEK293 short odor Ca2+ G15",mouse Olfr73 [4],Antagonist
same,"Effect on the response to vanillin, 30-sec pre-incubation","mouse Olfr73 [4]; HEK293, Gα15, vanillin 100 µM, MIEG 1 mM",complete inhibition
same,"Agonism/antagonism, OSN Ca2+ Rat","mouse Olfr73 [5]; 5-s pulse, strong agonist 100 µM, putative antagonist 1 mM",Agonist
same,Response to ligand applied alone,"mouse Olfr73 [6]; mouse Olfr73-OSNs, 5-s pulse",evoked a measurable response
same,Response to ligand applied alone,"mouse Olfr73 [6]; mouse Olfr73-OSNs, 5-s pulse, listed as MIEG",partial agonist
same,Response to ligand applied alone,"mouse Olfr73 [6]; mouse Olfr73-OSNs, 5-s pulse, listed as methylisoeugenol",also elicited a response
same,EC50,"mouse Olfr73 [6]; mouse Olfr73-OSNs, Ca2+ (GCaMP3), 5-s odorant pulse, read-out: EC50",430 ± 130 µM
same,Effect on the response to eugenol in a binary mix,"mouse Olfr73 [6]; mouse Olfr73-OSNs, listed as MIEG",did not reduce the response; also recorded: not significantly changed
same,"Agonism/antagonism, HEK293 long odor Cre/SEAP Gs/olf",mouse Olfr73 [7]; prolonged 30-min odorant application,Agonist
same,"Response to ligand applied alone, Cre-SEAP","mouse Olfr73 [7]; prolonged application, 0 µM eugenol",generated cAMP
same,"Interaction with eugenol in a binary mix, Cre-SEAP","mouse Olfr73 [7]; several concentrations of eugenol and MIEG, prolonged incubation",no antagonistic interaction
same,"Agonism/antagonism, HEK293 short odor Ca2+ Gq11",mouse Olfr73 [8],Antagonist
same,"Effect on the response to vanillin, 30-s pre-incubation",mouse Olfr73 [8]; [9],near complete inhibition; also recorded: almost completely blocked
same,"Effect on the response to vanillin, co-application",mouse Olfr73 [8]; [9],only partially inhibited
CCCCCCCC=O [octanal],Response to ligand applied alone,Olfr599,evoked reliable neuronal responses
C=CCc1cc(OC)c(O)c(-c2cc(CC=C)cc(OC)c2O)c1 [di-Eugenol],"Agonism/antagonism, HEK293 short odor Ca2+ Gs/olf",mouse Olfr73 [1]; 5-s pulse,Antagonist
same,"Agonism/antagonism, HEK293 short odor Ca2+ G15",mouse Olfr73 [4],Antagonist
same,"Agonism/antagonism, OSN Ca2+ Mouse",mouse Olfr73 [6]; 5-s pulse,Inactive
same,Response to ligand applied alone,"mouse Olfr73 [6]; mouse Olfr73-OSNs, 5-s pulse",failed to activate any response
same,Response to ligand applied alone,"mouse Olfr73 [6]; mouse Olfr73-OSNs, 5-s pulse, listed as di-EG",did not elicit any response
same,"Agonism/antagonism, HEK293 short odor Ca2+ Gq11",mouse Olfr73 [8],Antagonist
"CCCCCOC(C)=O [Amyl acetate, amyl acetate]",Response to ligand applied alone,"mouse Olfr73 [6]; mouse Olfr73-OSNs, 5-s pulse",variable responses
CC(=O)c1ccccc1 [acetophenone],Response to ligand applied alone,"mouse Olfr73 [6]; mouse Olfr73-OSNs, 5-s pulse",variable responses
CCC1c2cc(OC)c(O)cc2C(c2ccc(O)c(OC)c2)C1C (stereo not drawn) [di-Isoeugenol],"Agonism/antagonism, HEK293 short odor Ca2+ Gs/olf",mouse Olfr73 [1]; 5-s pulse,Antagonist
same,"Agonism/antagonism, HEK293 short odor Ca2+ G15",mouse Olfr73 [4],Antagonist
same,Response to ligand applied alone,mouse Olfr73 [4],is not an agonist
same,Effect on the response to eugenol in a binary mix,mouse Olfr73 [4],antagonizes eugenol
same,"Agonism/antagonism, OSN Ca2+ Mouse",mouse Olfr73 [6]; 5-s pulse,Inactive
same,Response to ligand applied alone,"mouse Olfr73 [6]; mouse Olfr73-OSNs, 5-s pulse, listed as di-IEG",did not elicit any response; also recorded: failed to activate any response
same,Effect on the response to eugenol in a binary mix,"mouse Olfr73 [6]; mouse Olfr73-OSNs, listed as di-IEG",not able to antagonize; also recorded: additive increase
same,"Agonism/antagonism, HEK293 short odor Ca2+ Gq11",mouse Olfr73 [8],Antagonist
"COc1cc(C=O)ccc1O [Vanillin, vanillin]","Agonism/antagonism, HEK293 short odor Ca2+ Gs/olf",mouse Olfr73 [1]; 5-s pulse,Agonist
"C=CCc1ccc(O)c(OC)c1 [Eugenol, eugenol]","Agonism/antagonism, HEK293 short odor Ca2+ Gs/olf",mouse Olfr73 [1]; 5-s pulse,Agonist
same,Response to ligand applied alone,mouse Olfr73 [2],robustly activated
same,Response to ligand applied alone,mouse Olfr73 [2]; listed as eugenol,robust elevation of intracellular calcium; also recorded: robust calcium signal
same,"Response to ligand applied alone, prolonged",mouse Olfr73 [3],sustained cAMP-dependent calcium influx
same,"Agonism/antagonism, HEK293 long odor Ca2+ Gs/olf",mouse Olfr73 [3],Agonist
same,"Agonism/antagonism, HEK293 short odor Ca2+ G15",mouse Olfr73 [4],Agonist
same,EC50,mouse Olfr73 [5],41 ± 12 µM
same,Sensitivity of rat versus mouse Olfr73-OSNs,mouse Olfr73 [5]; from EC50 values,nearly tenfold less sensitive
same,EC50,mouse Olfr73 [6],4.8 ± 1.1 µM
same,Response to ligand applied alone,"mouse Olfr73 [6]; mouse Olfr73-OSNs, 5-s pulse",strongly activated; also recorded: consistently evoked a response in all cells
same,EC50,"mouse Olfr73 [7]; HEK293 long odor, Cre/SEAP, Gs/olf, untagged Olfr73",205 ± 27 µM
same,Response to ligand applied alone,mouse Olfr73 [8],consistently activated calcium release
same,EC50,"mouse Olfr73 [8]; HEK293 short odor Ca2+, Gq11, response normalized to 5 mM eugenol",184 ± 62 µM
C=C(C)C1CC=C(C)C(=O)C1 (stereo not drawn) [Carvone],Response to ligand applied alone,"mouse Olfr73 [1]; HEK293, Gs/olf, 5-s pulse",did not activate any response
same,Effect on the response to eugenol or vanillin in a binary mix,"mouse Olfr73 [1]; HEK293, Gs/olf",no inhibiting effect
same,Response to ligand applied alone,mouse Olfr73 [4],non-agonist
same,Effect on the response to eugenol in a binary mix,mouse Olfr73 [4],incapable
same,Response to ligand applied alone,mouse Olfr73 [8],non-agonist
same,Effect on the response to eugenol in a binary mix,"mouse Olfr73 [8]; HEK293, eugenol 100 µM, test ligand 1 mM, also with 30-s pre-incubation",no antagonism; also recorded: failed to antagonize
C/C=C/c1ccc2c(c1)OCO2 [Isosafrole],"Agonism/antagonism, HEK293 short odor Ca2+ Gs/olf",mouse Olfr73 [1]; 5-s pulse,Antagonist
same,"Agonism/antagonism, HEK293 short odor Ca2+ G15",mouse Olfr73 [4],Antagonist
same,"Agonism/antagonism, OSN Ca2+ Mouse",mouse Olfr73 [6]; 5-s pulse,Agonist
same,Response relative to the response to eugenol,"mouse Olfr73 [6]; ligand 1 mM, 5-s pulse, Olfr73-OSNs",25%
same,"Agonism/antagonism, HEK293 short odor Ca2+ Gq11",mouse Olfr73 [8],Antagonist
